The values below come from patent US9096615B2, “Bridged bicyclic amino thiazine dioxide compounds as inhibitors of beta-secretase and methods of use thereof” (AMGEN INC., priority 2013, dated 2015).

In series [1] the test system is Aβ in lumbar CSF. The settings on record: cited from earlier work.
The subject of series [2] is rat. Particulars: higher compound dose given for three months; cited from earlier work.
Series [3] has as its target T1, Cathepsin D (Cat D) (Homo sapiens, UniProt P07339).
T1 construct: made in house; host or cells: CHO cells
In words: In vitro enzymatic Cathepsin D (Cat D) FRET assay. The settings on record: average IC50; first procedure; read-out: CatD IC50. The class given is biochemical. A digest of the protocol: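 Recombinant human Cat D expressed in CHO cells, 9 nM, pre-incubated 1 h with inhibitor in 0.05 M citrate pH 3.5, 10% DMSO, 5 mM CHAPS. Reaction started with 20 nM FRET peptide substrate, run 1 h, stopped with Tris to neutral pH; fluorescence read at ex 500/em 580 nm.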

In series [4] the test system is Aβ40 in conditioned medium of cells stably expressing Amyloid Precursor Protein (APP). In words: In vitro BACE cell-based assay (HEK cell assay, Aβ40 sandwich ELISA). Particulars: Homo sapiens, HEK293; average IC50; read-out: BACE1 cell assay IC50. A digest of the protocol:
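APP-stable cells were cultured 24 h at 37 °C, then given compound as 10-point dose-response (top 100 μM or 10 μM; 0.1% DMSO final) for 24 h. Aβ40 in conditioned medium was measured by sandwich ELISA (pAb40 capture, biotinylated 6E10 detection, Eu time-resolved fluorescence). IC50 from percent inhibition versus concentration.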

Series [5] addresses BACE1 (Homo sapiens, UniProt P56817). The series is described as follows: In vitro enzymatic BACE FRET assay. The settings on record: average IC50; read-out: BACE1 Enzyme assay IC50. The class given is biochemical. The gist of the method: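 BACE (0.2 nM) pre-incubated 1 h with serially diluted inhibitor in 0.05 M acetate pH 4.2, 10% DMSO, 100 uM genapol; 50 nM FRET peptide substrate added, 1 h incubation. Stopped with Tris to neutral pH; fluorescence read (ex 488, […]).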

Series [6] addresses T2, human Bace2 protein (Homo sapiens, UniProt Q9Y5Z0).
T2 construct: V5 (C); 6-His (C)
T2 sequence (Q9Y5Z0 63-518): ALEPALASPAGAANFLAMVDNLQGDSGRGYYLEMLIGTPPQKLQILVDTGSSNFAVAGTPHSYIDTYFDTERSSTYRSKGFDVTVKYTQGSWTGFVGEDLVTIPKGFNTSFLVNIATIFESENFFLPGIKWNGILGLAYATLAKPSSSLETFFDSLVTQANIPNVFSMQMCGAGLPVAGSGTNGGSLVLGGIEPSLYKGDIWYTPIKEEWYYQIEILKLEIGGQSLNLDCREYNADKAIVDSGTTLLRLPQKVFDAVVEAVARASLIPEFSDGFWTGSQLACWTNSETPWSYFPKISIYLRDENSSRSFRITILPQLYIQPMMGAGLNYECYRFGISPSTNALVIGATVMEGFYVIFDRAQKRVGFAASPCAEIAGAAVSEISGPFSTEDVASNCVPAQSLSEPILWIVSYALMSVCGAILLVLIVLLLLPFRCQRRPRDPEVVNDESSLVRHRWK
In words: In vitro enzymatic BACE2 FRET assay. The class given is biochemical. The settings on record: average IC50; read-out: BACE2 Enzyme assay IC50. The protocol: In Vitro Enzymatic BACE2 FRET (Fluorescence Resonance Energy Transfer) Assay
Enzyme Assay Data in the Table 3
The assay buffer used in this screen is 0.05 M acetate, pH 4.2, 10% DMSO final, 100 uM genapol (which is a nonionic detergent, below its Critical Micelle Concentration). The Beta Secretase2 enzyme (human Bace2 protein with C-terminal V5 and 6-His tag; 0.2 nM) is pre-incubated for one hour with inhibitors, typically in about 1 uL of DMSO according to a serial dilution, are added thereto. This assay is effectively started by the addition of FRET substrate (50 nM) and the combination is incubated for one hour. Final assay concentration of about 0.64 nM. The FRET assay is terminated with by addition of Tris buffer, which raises the pH to neutrality, and the fluorescence is determined. The FRET substrate is a peptide with commercially available fluorophore and quencher, on opposite sides of the BACE cleavage site. Proteolytic cleavage of the FRET substrate releases quenching of fluorescence (excitation 488 nm and […]).

Chain of BACE1 (P56817 46-501, species assumed): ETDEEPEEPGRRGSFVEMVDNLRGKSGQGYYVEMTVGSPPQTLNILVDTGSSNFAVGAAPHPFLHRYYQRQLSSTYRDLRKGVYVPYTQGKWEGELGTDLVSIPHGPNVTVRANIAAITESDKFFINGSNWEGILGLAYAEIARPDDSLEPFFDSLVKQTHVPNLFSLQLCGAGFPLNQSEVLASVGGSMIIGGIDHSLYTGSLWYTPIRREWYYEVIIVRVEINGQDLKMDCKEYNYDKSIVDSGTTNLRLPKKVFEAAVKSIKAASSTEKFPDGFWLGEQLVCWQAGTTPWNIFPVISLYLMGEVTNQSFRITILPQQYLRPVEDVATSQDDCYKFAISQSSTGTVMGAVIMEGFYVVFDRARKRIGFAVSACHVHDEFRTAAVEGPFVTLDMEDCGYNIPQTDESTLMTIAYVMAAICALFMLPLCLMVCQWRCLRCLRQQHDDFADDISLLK
T1 sequence (P07339 65-412, species assumed): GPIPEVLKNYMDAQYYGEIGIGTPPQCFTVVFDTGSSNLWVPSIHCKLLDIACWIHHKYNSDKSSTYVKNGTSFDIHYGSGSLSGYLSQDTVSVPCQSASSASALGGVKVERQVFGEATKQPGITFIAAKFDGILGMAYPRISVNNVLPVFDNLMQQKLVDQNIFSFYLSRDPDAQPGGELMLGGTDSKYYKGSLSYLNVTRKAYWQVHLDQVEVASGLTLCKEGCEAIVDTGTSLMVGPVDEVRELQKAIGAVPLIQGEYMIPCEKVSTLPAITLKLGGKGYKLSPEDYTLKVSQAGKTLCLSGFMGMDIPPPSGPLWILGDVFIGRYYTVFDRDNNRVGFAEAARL

With `C[C@@]1(c2cc(-c3cncnc3)c(F)cc2F)CCSC(N)=N1` [LY2811376, (S)-4-(2,4-difluoro-5-pyrimidin-5-yl-phenyl)-4-methyl-5,6-dihydro-4H-[1,3]thiazin-2-ylamine], in series [1] (after oral dosing of 30 or 90 mg), the “Aβ reductions in lumbar CSF” value is “Prominent and long-lasting Aβ reductions”. The safety and tolerability entry in series [1] (healthy volunteers) was “safe and well tolerated”. In series [2], the “rat toxicology finding in the eye” value is recorded as “damaged the pigment epithelium of the rat's eye”.
As to `C[C@]1(c2cc(Nc3nccc4nc(OCC(F)(F)F)cnc34)ccc2F)N=C(N)[C@@]2(CF)CC[C@@H]1S2(=O)=O` [Example 112, N-(3-((1S,2R,5R)-4-amino-5-(fluoromethyl)-2-methyl-8,8-dioxido-8-thia-3-azabicyclo[3.2.1]oct-3-en-2-yl)-4-fluorophenyl)-2-(2,2,2-trifluoroethoxy)pyrido[3,4-b]pyrazin-5-amine], the IC50 in series [3] is 1310 µM; in series [4] it was 0.188 µM; in series [5], 0.008 µM; in series [6], 0.058 µM.
The corresponding values for `C#C[C@H](C)Oc1cnc(C(=O)Nc2ccc(F)c([C@@]3(C)N=C(N)[C@@]4(CF)CC[C@@H]3S4(=O)=O)c2)cn1` [Example 45, N-(3-((1S,2R,5R)-4-amino-5-(fluoromethyl)-2-methyl-8,8-dioxido-8-thia-3-azabicyclo[3.2.1]oct-3-en-2-yl)-4-fluorophenyl)-5-(((1S)-1-methyl-2-propyn-1-yl)oxy)-2-pyrazinecarboxamide] are 596 µM, 0.003 µM, 0.003 µM and 0.019 µM.
The corresponding values for `C[C@]1(c2cc(Nc3ncnc4cc(OCC5CC5)cnc34)ccc2F)N=C(N)[C@@]2(C)CC[C@@H]1S2(=O)=O` [Example 139, N-(3-((1S,2R,5R)-4-amino-2,5-dimethyl-8,8-dioxido-8-thia-3-azabicyclo[3.2.1]oct-3-en-2-yl)-4-fluorophenyl)-7-(cyclopropylmethoxy)pyrido[3,2-d]pyrimidin-4-amine] are 1280 µM, 0.005 µM, 0.005 µM and 0.067 µM.
Take `C[C@]1(c2cc(Nc3nccc4nc(C(F)(F)F)cnc34)ccc2F)N=C(N)[C@@]2(CF)CC[C@@H]1S2(=O)=O` [Example 55, N-(3-((1S,2R,5R)-4-amino-5-(fluoromethyl)-2-methyl-8,8-dioxido-8-thia-3-azabicyclo[3.2.1]oct-3-en-2-yl)-4-fluorophenyl)-2-(trifluoromethyl)pyrido[3,4-b]pyrazin-5-amine]: the IC50 in series [3] was greater than 133 µM; in series [4], 0.351 µM; in series [5] it was 0.018 µM; in series [6] it was 0.024 µM.
As for `CC#CCOc1cnc2c(Nc3ccc(F)c([C@@]4(C)N=C(N)[C@]5(C)CC[C@H]4S5(=O)=O)c3)nccc2n1` [Example 63, N-(3-((1R,2R,5S)-4-amino-2,5-dimethyl-8,8-dioxido-8-thia-3-azabicyclo[3.2.1]oct-3-en-2-yl)-4-fluorophenyl)-2-(2-butyn-1-yloxy)pyrido[3,4-b]pyrazin-5-amine], the IC50 in series [3] is 1180 µM; in series [4], 0.002 µM; in series [5], 0.003 µM; in series [6], 0.321 µM.
The corresponding values for `Cc1nc(OCC(F)(F)F)cnc1C(=O)Nc1ccc(F)c([C@@]2(C)N=C(N)[C@@]3(CF)CC[C@@H]2S3(=O)=O)c1` [Example 57, N-(3-((1S,2R,5R)-4-amino-5-(fluoromethyl)-2-methyl-8,8-dioxido-8-thia-3-azabicyclo[3.2.1]oct-3-en-2-yl)-4-fluorophenyl)-3-methyl-5-(2,2,2-trifluoroethoxy)-2-pyrazinecarboxamide] are greater than 400 µM, 0.048 µM, 0.003 µM and 0.076 µM.
For `C#CCOc1cnc(C(=O)Nc2ccc(F)c([C@@]3(C)N=C(N)[C@@]4(CF)CC[C@@H]3S4(=O)=O)c2)c(Cl)c1` [Example 60, N-(3-((1S,2R,5R)-4-amino-5-(fluoromethyl)-2-methyl-8,8-dioxido-8-thia-3-azabicyclo[3.2.1]oct-3-en-2-yl)-4-fluorophenyl)-3-chloro-5-(2-propyn-1-yloxy)-2-pyridinecarboxamide] the same measures were 953 µM, 0.008 µM, 0.001 µM and 0.01 µM.
